Assay results published in ChEMBL document CHEMBL5233219, “Diarylamides in anticancer drug discovery: A review of pre-clinical and clinical investigations” (Eur J Med Chem, 2020).
Each block holds one compound with its values, some of them ahead of it.

Tests used:
HS27 = test: Cytotoxicity against human HS27 cells; format: functional, cell-based
DU-145 = test: Antiproliferative activity against human DU-145 cells assessed as inhibition of cell growth; format: functional, cell-based
OVCAR-3 = test: Antiproliferative activity against human OVCAR-3 cells assessed as inhibition of cell growth; format: functional, cell-based
Macrophage = test: Cytotoxicity against human Macrophage cells relative to control; format: functional
[1] = biological target: T1, Macrophage colony-stimulating factor 1 receptor (Homo sapiens, UniProt P07333); test: Inhibition of FMS (unknown origin) relative to control; settings: concentration not given here
SK-OV-3 [2] = test: Antiproliferative activity against human SK-OV-3 cells assessed as inhibition of cell growth relative to control; format: functional; parameters: scale not given: the % may be the effect or the level left
IGROV-1 = test: Antiproliferative activity against human IGROV-1 cells assessed as inhibition of cell growth relative to control; format: functional; parameters: scale not given: the % may be the effect or the level left
[3] = biological target: T1, Macrophage colony-stimulating factor 1 receptor; test: Inhibition of FMS (unknown origin)
SK-OV-3 [4] = test: Antiproliferative activity against human SK-OV-3 cells assessed as inhibition of cell growth; format: functional, cell-based
T47D = test: Antiproliferative activity against human T47D cells assessed as inhibition of cell growth relative to control; format: functional; parameters: scale not given: the % may be the effect or the level left
[5] = Cytotoxicity against human A375P cells; format: functional, cell-based
[6] = Antiproliferative activity against human A375P cells; format: functional, cell-based
[7] = Cytotoxicity against human HUVEC cells; format: toxicity, cell-based
OVCAR-5 = test: Antiproliferative activity against human OVCAR-5 cells assessed as reduction in cell viability; format: functional, cell-based
[8] = tested on: Panel NCI-60 (60 carcinoma cell lines); test: Antiproliferative activity against human Panel NCI-60 (60 carcinoma cell lines) assessed as reduction in cell viability; format: functional
MCF7 = test: Anticancer activity against human MCF7 cells assessed as inhibition of cell growth; format: functional; parameters: scale not given: the % may be the effect or the level left
MDA-MB-468 = test: Anticancer activity against human MDA-MB-468 cells assessed as inhibition of cell growth; format: functional; parameters: scale not given: the % may be the effect or the level left
MOLT-4 = test: Anticancer activity against human MOLT-4 cells assessed as inhibition of cell growth; format: functional; parameters: scale not given: the % may be the effect or the level left
[9] = tested on: Panel NCI-60 (60 carcinoma cell lines); test: Antiproliferative activity against human Panel NCI-60 (60 carcinoma cell lines) assessed as reduction in cell viability at 10 uM; format: functional
[10] = Antitumor activity against human OVCAR cells implanted in mouse assessed as tumor growth inhibition; format: functional
[11] = Antiproliferative activity against human OVCAR assessed as reduction in cell viability; format: functional, cell-based
[12] = AUC in mouse at 100 mg/kg, po administered once daily; format: ADME, organism-based; parameters: dose 100 mg/kg, route po; settings: in vivo
[13] = Volume of distribution in human; format: ADME
[14] = Plasma concentration in mouse at 100 mg/kg, po administered once daily; format: ADME, organism-based; settings: in vivo
[15] = Volume of distribution in mouse at 100 mg/kg, po administered once daily; format: ADME, organism-based; settings: in vivo
[16] = Half life in mouse at 100 mg/kg, po administered once daily; settings: in vivo
[17] = Plasma protein binding in mouse at 100 mg/kg, po administered once daily; format: ADME, organism-based; settings: read-out: PPB (converted)
[18] = Oral bioavailability in mouse at 100 mg/kg administered once daily; format: ADME, organism-based; settings: in vivo
Cytochrome P450 2C19 = Cytochrome P450 2C19 (Homo sapiens, UniProt P33261); test: Inhibition of CYP2C19 (unknown origin); format: ADME
[19] = Oral bioavailability in mouse at 400 to 600 mg/kg; format: ADME, organism-based; settings: in vivo, dose 400-600 mg/kg
Cytochrome P450 1A2 = biological target: T2, Cytochrome P450 1A2 (Homo sapiens, UniProt P05177); test: Inhibition of CYP1A2 (unknown origin); format: ADME
T2 sequence (P05177 whole entry): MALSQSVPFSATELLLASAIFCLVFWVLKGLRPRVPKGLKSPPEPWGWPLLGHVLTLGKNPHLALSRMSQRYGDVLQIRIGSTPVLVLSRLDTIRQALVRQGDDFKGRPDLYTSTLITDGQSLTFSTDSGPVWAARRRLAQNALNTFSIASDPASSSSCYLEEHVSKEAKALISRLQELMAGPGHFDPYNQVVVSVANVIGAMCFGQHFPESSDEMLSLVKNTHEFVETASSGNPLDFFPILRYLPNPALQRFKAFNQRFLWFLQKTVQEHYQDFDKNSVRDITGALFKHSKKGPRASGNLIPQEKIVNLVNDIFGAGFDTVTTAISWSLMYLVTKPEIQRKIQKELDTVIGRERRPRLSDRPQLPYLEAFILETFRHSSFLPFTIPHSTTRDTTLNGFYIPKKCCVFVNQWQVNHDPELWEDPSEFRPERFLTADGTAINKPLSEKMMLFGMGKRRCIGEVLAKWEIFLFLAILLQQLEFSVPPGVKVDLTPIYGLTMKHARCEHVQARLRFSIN

[20] = Inhibition of tyrosine kinase (unknown origin) in human LNCaP-abl cells
[21] = Cmax in mouse plasma; format: ADME, cell-free
SCH = test: Antiproliferative activity against human SCH cells assessed as reduction in cell viability; format: functional, cell-based
[22] = Oral bioavailability in mouse; format: ADME, organism-based; settings: in vivo
Cytochrome P450 2D6 = Cytochrome P450 2D6 (Homo sapiens, UniProt P10635); test: Inhibition of CYP2D6 (unknown origin); format: ADME
[23] = Plasma concentration in mouse at 400 to 600 mg/kg, po administered once daily; format: ADME, organism-based; settings: in vivo, dose 400-600 mg/kg
[24] = Cmax in female mouse plasma; format: ADME, cell-free
[25] = Cmax in male mouse plasma; format: ADME, cell-free
[26] = AUC in mouse at 400 to 600 mg/kg, po administered once daily; format: ADME, organism-based; parameters: route po; settings: in vivo, dose 400-600 mg/kg
[27] = Inhibition of tyrosine kinase (unknown origin); parameters: species or system Homo sapiens
[28] = Half life in human; format: ADME
[29] = Plasma protein binding in mouse at 150 to 400 mg/kg, po administered twice daily; format: ADME, organism-based; settings: dose 150-400 mg/kg, read-out: PPB (converted)
[30] = Half life in mouse at 150 to 400 mg/kg, po administered twice daily; format: ADME, organism-based; settings: in vivo, dose 150-400 mg/kg
[31] = Oral bioavailability in mouse at 150 to 400 mg/kg administered twice daily; format: ADME, organism-based; settings: in vivo, dose 150-400 mg/kg
[32] = Drug excretion in rat feces assessed as cumulative amount of unchanged drug excreted at 10 mg/kg, po; format: ADME, organism-based; settings: faeces, read-out: Drug excretion
[33] = Plasma concentration in mouse at 150 to 400 mg/kg, po administered twice daily; format: ADME, organism-based; settings: in vivo, dose 150-400 mg/kg
[34] = mouse, in vivo, po
Description: Volume of distribution in mouse at 150 to 400 mg/kg, po administered twice daily

[35] = Drug absorption in mouse at 400 mg/kg, po; format: ADME, organism-based; settings: in vivo, read-out: Drug absorption
[36] = AUC in mouse at 150 to 400 mg/kg, po administered twice daily; format: ADME, organism-based; parameters: route po; settings: in vivo, dose 150-400 mg/kg
[37] = Tmax in human; format: ADME

T1 sequence (P07333 whole entry): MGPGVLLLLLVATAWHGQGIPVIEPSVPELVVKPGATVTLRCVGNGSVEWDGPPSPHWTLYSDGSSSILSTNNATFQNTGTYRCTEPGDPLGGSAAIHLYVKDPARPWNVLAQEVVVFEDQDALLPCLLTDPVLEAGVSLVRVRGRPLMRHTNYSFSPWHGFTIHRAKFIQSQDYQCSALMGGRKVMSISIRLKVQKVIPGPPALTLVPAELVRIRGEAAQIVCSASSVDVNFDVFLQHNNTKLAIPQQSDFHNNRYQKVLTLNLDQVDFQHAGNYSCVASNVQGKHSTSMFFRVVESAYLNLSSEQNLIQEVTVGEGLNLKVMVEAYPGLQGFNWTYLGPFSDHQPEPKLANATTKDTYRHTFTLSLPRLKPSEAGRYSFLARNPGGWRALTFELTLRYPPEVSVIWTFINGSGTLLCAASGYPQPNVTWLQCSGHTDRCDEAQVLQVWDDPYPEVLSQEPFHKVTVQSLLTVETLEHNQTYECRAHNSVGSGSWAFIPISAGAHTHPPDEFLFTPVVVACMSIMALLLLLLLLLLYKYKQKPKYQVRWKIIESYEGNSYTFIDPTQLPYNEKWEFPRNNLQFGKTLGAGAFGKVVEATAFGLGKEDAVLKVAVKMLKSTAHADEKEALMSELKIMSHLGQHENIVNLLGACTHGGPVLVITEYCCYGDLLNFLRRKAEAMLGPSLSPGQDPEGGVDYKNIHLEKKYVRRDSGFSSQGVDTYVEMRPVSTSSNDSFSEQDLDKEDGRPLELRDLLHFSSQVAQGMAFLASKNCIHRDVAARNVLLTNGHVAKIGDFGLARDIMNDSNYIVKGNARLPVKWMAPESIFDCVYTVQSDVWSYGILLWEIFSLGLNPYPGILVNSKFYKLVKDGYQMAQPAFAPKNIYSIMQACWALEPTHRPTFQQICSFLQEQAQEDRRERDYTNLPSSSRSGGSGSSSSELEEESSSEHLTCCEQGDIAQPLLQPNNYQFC
Sequence of Cytochrome P450 2D6 (P10635 whole entry): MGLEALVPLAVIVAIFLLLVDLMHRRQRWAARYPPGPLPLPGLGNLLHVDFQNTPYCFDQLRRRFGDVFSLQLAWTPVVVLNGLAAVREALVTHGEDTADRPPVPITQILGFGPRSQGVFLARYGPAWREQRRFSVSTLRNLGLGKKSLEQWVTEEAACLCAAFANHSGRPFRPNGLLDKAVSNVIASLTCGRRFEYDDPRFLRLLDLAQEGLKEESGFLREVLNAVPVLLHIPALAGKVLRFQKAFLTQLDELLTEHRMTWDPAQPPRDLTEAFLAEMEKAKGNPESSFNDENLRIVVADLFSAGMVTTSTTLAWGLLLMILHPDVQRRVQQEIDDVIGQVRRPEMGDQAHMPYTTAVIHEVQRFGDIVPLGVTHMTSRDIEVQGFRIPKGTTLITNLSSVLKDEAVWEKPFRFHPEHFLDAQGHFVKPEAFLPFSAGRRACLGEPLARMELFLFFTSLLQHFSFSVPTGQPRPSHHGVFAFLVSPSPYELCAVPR
Sequence of Cytochrome P450 2C19 (P33261 whole entry): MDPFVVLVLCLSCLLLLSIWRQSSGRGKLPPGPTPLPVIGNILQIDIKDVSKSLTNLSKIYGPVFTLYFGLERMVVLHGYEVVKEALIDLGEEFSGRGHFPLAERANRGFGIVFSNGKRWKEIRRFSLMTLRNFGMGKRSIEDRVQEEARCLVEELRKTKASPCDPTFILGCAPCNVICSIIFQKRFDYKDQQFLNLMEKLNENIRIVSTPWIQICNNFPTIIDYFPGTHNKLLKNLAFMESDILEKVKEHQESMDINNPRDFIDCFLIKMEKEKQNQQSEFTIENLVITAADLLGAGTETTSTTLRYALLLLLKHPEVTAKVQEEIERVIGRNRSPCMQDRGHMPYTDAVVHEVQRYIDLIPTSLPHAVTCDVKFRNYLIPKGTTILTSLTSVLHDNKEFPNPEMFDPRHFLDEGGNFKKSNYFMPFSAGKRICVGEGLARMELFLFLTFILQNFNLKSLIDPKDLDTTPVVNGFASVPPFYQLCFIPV

IC50 (DU-145): 98 nM | IC50 (OVCAR-3): 45 nM | inhibition [1]: 90% | IC50 [3]: 30 nM | IC50 (SK-OV-3 [4]): 3600 nM
SMILES: O=C(Nc1cccc(-n2ccc3c(NC(=O)c4ccccc4)nccc32)c1)c1ccc(N2CCOCC2)c(C(F)(F)F)c1
IC50 (HS27): 300 nM | Activity (Macrophage): 52% | Activity (SK-OV-3 [2]): 106.2% | Activity (IGROV-1): 90% | Activity (T47D): 90%

SMILES: CCN1CCN(Cc2ccc(NC(=O)Nc3ccc(-n4ccc5c(NC(=O)c6ccccc6)nccc54)cc3)cc2C(F)(F)F)CC1
IC50 (HS27): 7800 nM | IC50 [5]: 100 nM

SMILES: Cc1ccc(NC(=O)Nc2cc(F)cc(C(F)(F)F)c2)cc1Nc1cc(=O)[nH]c(N)n1
IC50 [6]: 190 nM

SMILES: COc1ccc(-c2nc3c(Nc4ccc(NC(=O)c5cccc(Cl)c5)cc4)nc(C)nc3o2)cc1
IC50 [7]: 1280 nM

SMILES: Cc1nc(Nc2ccc(NC(=O)c3cccc(Cl)c3)cc2)c2nc(-c3ccc(Cl)cc3)oc2n1
IC50 [7]: 1310 nM

IC50 (OVCAR-5): 1330 nM
SMILES: COc1ccc(-c2nn(-c3ccc(NC(=O)c4ccc(Cl)c(C(F)(F)F)c4)cc3)cc2-c2ccncc2)cc1Cl
Activity [8]: 103.16%

SMILES: COc1cc2cc3c(nc2cc1OC)CCN3Cc1ccc(NC(=O)c2ccc(Cl)c(C(F)(F)F)c2)cc1
Activity (MCF7): 84.97% | Activity (MDA-MB-468): 87.13% | Activity (MOLT-4): 43.19%

SMILES: Cc1ccc(NC(=O)Nc2ccc(Cl)nc2)cc1Nc1cc(=O)[nH]c(N)n1
IC50 [6]: 190 nM

SMILES: O=C(Nc1ccc(-n2ccc3c(NC(=O)c4ccccc4)ncnc32)cc1)Nc1cccc(Cl)c1Cl
Activity [9]: 109.18% | TGI [10]: 1800 nM | IC50 [11]: 3670 nM

SMILES: Cc1nc(Nc2ncc(C(=O)Nc3c(C)cccc3Cl)s2)cc(N2CCN(CCO)CC2)n1.O [DASATINIB]
AUC [12]: 48.8 ng·h/mL | Vd [13]: 2.05 L | Cp [14]: 129 ng/mL | Vd [15]: 2.052 L | half-life [16]: 3 h | fraction unbound [17]: 0.04 | bioavailability [18]: 14%

inhibition (INH) (Cytochrome P450 2C19): 10% | bioavailability [19]: 98.3% | inhibition (INH) (Cytochrome P450 1A2): 10% | IC50 [20]: 188 nM | Cmax [21]: 1.9 ng/mL | bioavailability [22]: 98.3% | inhibition (INH) (Cytochrome P450 2D6): 10% | Cp [23]: 3.7 ng/mL | Cmax [24]: 1080 ng/mL | Cmax [25]: 921 ng/mL | AUC [26]: 24800 ng·h/mL | IC50 [27]: 30 nM
SMILES: Cc1ccc(NC(=O)c2ccc(CN3CCN(C)CC3)cc2)cc1Nc1nccc(-c2cccnc2)n1 [IMATINIB]
IC50 (SCH): 4700 nM

half-life [28]: 17 h | fraction unbound [29]: 0.02 | half-life [30]: 13 h | bioavailability [31]: 25% | dose excreted [32]: 69% | Cp [33]: 445 ng/mL | Vd [34]: 0.55 L/kg | Fa [35]: 35% | AUC [36]: 11.9 ng·h/mL | IC50 [27]: 188 nM | Tmax [37]: 3 h
SMILES: Cc1cn(-c2cc(NC(=O)c3ccc(C)c(Nc4nccc(-c5cccnc5)n4)c3)cc(C(F)(F)F)c2)cn1 [NILOTINIB]
IC50 (SCH): 14600 nM

SMILES: CNC(=O)c1cc(Oc2ccc(NC(=O)Nc3ccc(Cl)c(C(F)(F)F)c3)cc2)ccn1 [SORAFENIB]
IC50 (HS27): 7800 nM | IC50 [5]: 95 nM
